From patent US9732075B2, “Benzimidazole-proline derivatives” (IDORSIA PHARMACEUTICALS LTD, priority 2012, dated 2017)

Legend:
[1] = target: human orexin-1 receptor (Homo sapiens (Human), UniProt O43613); test: In vitro assay: intracellular calcium measurements (FLIPR), antagonistic activity; type: cell-based; conditions: CHO cells expressing human orexin-1 receptor, orexin-A agonist, geometric mean, read-out: IC50 Ox1
Outline: (§1)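 IC50s are geometric means, possibly reference-normalized, from FLIPR calcium peaks in CHO cells bearing human orexin-1 or orexin-2 receptor. Fluo-4 AM/probenecid-loaded cells received antagonist for 120 min before challenge with orexin-A (final 3 nM, ~EC70), with responses compared against vehicle controls.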

[2] = target: human orexin-2 receptor (Homo sapiens (Human), UniProt O43614); test: as above; type: cell-based; conditions: CHO cells expressing human orexin-2 receptor, orexin-A agonist, geometric mean, read-out: IC50 Ox2
human orexin-2 receptor, sequence (O43614 whole entry): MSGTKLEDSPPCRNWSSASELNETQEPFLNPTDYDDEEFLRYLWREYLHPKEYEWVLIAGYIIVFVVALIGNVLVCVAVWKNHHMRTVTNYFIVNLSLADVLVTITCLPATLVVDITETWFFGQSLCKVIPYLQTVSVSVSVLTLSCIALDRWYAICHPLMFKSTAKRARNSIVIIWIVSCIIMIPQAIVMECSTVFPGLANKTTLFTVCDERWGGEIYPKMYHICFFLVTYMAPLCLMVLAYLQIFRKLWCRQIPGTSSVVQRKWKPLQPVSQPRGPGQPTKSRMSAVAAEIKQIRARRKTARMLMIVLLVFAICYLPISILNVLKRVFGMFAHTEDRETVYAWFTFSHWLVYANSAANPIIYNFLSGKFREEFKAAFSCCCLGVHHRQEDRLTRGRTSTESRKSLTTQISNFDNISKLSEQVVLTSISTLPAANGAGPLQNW
Outline: as §1

human orexin-1 receptor, sequence (O43613 whole entry): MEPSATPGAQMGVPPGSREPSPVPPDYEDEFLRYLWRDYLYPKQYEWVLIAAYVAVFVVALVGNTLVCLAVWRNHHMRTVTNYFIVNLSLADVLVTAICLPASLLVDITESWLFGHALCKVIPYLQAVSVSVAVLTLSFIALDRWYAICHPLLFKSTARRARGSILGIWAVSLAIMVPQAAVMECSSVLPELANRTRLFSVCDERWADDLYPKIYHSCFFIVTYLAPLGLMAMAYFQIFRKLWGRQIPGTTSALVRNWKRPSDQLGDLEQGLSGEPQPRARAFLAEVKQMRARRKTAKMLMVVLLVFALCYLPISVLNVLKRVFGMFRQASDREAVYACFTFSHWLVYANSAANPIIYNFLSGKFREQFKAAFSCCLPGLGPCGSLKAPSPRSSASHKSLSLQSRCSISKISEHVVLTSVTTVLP

SMILES | IC50 [1] | IC50 [2]
C=C1C[C@@H](c2nc3cc(C(C)(C)C)ccc3[nH]2)N(C(=O)c2c(-n3nccn3)ccc(C)c2F)C1 [Ex. 6.164] | 0.1 µM | 0.009 µM
C=C1C[C@@H](c2nc3cc(C(C)(C)C)ccc3[nH]2)N(C(=O)c2ccc(C)cc2-n2nccn2)C1 [Ex. 6.166] | 0.033 µM | 0.004 µM
C=C1C[C@@H](c2nc3cc(C(C)(C)C)ccc3[nH]2)N(C(=O)c2cc(OC(F)(F)F)ccc2-n2nccn2)C1 [Ex. 6.169] | 0.344 µM | 0.479 µM
C=C1C[C@@H](c2nc3cc(C(C)(C)C)ccc3[nH]2)N(C(=O)c2cc(OC)c(OC)cc2-n2nccn2)C1 [Ex. 6.170] | 0.018 µM | 0.015 µM
C=C1C[C@@H](c2nc3cc(C(C)(C)C)ccc3[nH]2)N(C(=O)c2cc(C)ccc2-n2cccn2)C1 [Ex. 6.171] | 0.162 µM | 0.019 µM
C=C1C[C@@H](c2nc3cc(C(C)(C)C)ccc3[nH]2)N(C(=O)c2nc(C)ccc2-n2nccn2)C1 [Ex. 6.174] | 0.233 µM | 0.015 µM
C=C1C[C@@H](c2nc3cc(Cl)c(C(F)(F)F)cc3[nH]2)N(C(=O)c2c(C)cccc2-n2nccn2)C1 [Ex. 6.183] | 0.127 µM | 0.021 µM
C=C1C[C@@H](c2nc3cc(Cl)c(C(F)(F)F)cc3[nH]2)N(C(=O)c2cc(OC(F)(F)F)ccc2-n2nccn2)C1 [Ex. 6.185] | 0.239 µM | 0.103 µM
C=C1C[C@@H](c2nc3cc(Cl)c(C(F)(F)F)cc3[nH]2)N(C(=O)c2ccccc2-n2cccn2)C1 [Ex. 6.188] | 0.115 µM | 0.066 µM
C=C1C[C@@H](c2nc3cc(Cl)c(C(F)(F)F)cc3[nH]2)N(C(=O)c2nc(C)ccc2-n2nccn2)C1 [Ex. 6.190] | 0.01 µM | 0.009 µM
C=C1C[C@@H](c2nc3cc(C)c(C)cc3[nH]2)N(C(=O)c2cc(F)ccc2-n2nccn2)C1 [Ex. 6.192] | 0.048 µM | 0.007 µM
C=C1C[C@@H](c2nc3cc(C)c(C)cc3[nH]2)N(C(=O)c2cc(Cl)ccc2-n2nccn2)C1 [Ex. 6.193] | 0.041 µM | 0.004 µM
C=C1C[C@@H](c2nc3cc(C)c(C)cc3[nH]2)N(C(=O)c2ccccc2-n2nccn2)C1 [Ex. 6.194] | 0.051 µM | 0.005 µM
C=C1C[C@@H](c2nc3cc(C)c(C)cc3[nH]2)N(C(=O)c2c(-n3nccn3)ccc(OC)c2F)C1 [Ex. 6.195] | 0.043 µM | 0.011 µM
C=C1C[C@@H](c2nc3cc(C)c(C)cc3[nH]2)N(C(=O)c2c(-n3nccn3)ccc(C)c2F)C1 [Ex. 6.196] | 0.059 µM | 0.012 µM
C=C1C[C@@H](c2nc3cc(C)c(C)cc3[nH]2)N(C(=O)c2cc(C)c(C)cc2-n2nccn2)C1 [Ex. 6.197] | 0.006 µM | 0.002 µM
C=C1C[C@@H](c2nc3cc(C)c(C)cc3[nH]2)N(C(=O)c2ccc(C)cc2-n2nccn2)C1 [Ex. 6.198] | 0.012 µM | 0.003 µM
C=C1C[C@@H](c2nc3cc(C)c(C)cc3[nH]2)N(C(=O)c2cc(OC)c(OC)cc2-n2nccn2)C1 [Ex. 6.200] | 0.058 µM | 0.01 µM
C=C1C[C@@H](c2nc3cc(C)c(C)cc3[nH]2)N(C(=O)c2cc(C)ccc2-n2cccn2)C1 [Ex. 6.201] | 0.148 µM | 0.025 µM
C=C1C[C@@H](c2nc3cc(C)c(C)cc3[nH]2)N(C(=O)c2nc(C)ccc2-n2nccn2)C1 [Ex. 6.202] | 0.089 µM | 0.013 µM
Cc1nc(C(=O)N2CCC[C@@]2(C)c2nc3c(C)cccc3n2C)c(-c2cccc(Cl)c2)s1 [Ex. 7.5] | 0.009 µM | 0.002 µM

More lines, in order of falling IC50 [1], values ahead:

IC50 [1] | IC50 [2] | SMILES
1.26 µM | 0.067 µM | C=C1C[C@@H](c2nc3cc(C(C)(C)C)ccc3[nH]2)N(C(=O)c2ccccc2-n2cccn2)C1 [Ex. 6.172]
0.842 µM | 0.064 µM | C=C1C[C@@H](c2nc3cc(C(C)(C)C)ccc3[nH]2)N(C(=O)c2nc(C)ccc2-n2cccn2)C1 [Ex. 6.173]
0.573 µM | 0.025 µM | C=C1C[C@@H](c2nc3cc(C(C)(C)C)ccc3[nH]2)N(C(=O)c2c(C)cccc2-n2nccn2)C1 [Ex. 6.167]
0.42 µM | 0.069 µM | C=C1C[C@@H](c2nc3cc(C)c(C)cc3n2C)N(C(=O)c2cc(C)ccc2-n2nccn2)C1 [Ex. 7.2]
0.261 µM | 0.054 µM | C=C1C[C@@H](c2nc3cc(C(C)(C)C)ccc3[nH]2)N(C(=O)c2cc(C(F)(F)F)ccc2-n2nccn2)C1 [Ex. 6.168]
0.143 µM | 0.006 µM | C=C1C[C@@H](c2nc3cc(C)c(C)cc3[nH]2)N(C(=O)c2c(C)cccc2-n2nccn2)C1 [Ex. 6.199]
0.134 µM | 0.007 µM | C=C1C[C@@H](c2nc3cc(C)c(C)cc3[nH]2)N(C(=O)c2c(F)cccc2-n2nccn2)C1 [Ex. 6.191]
0.077 µM | 0.019 µM | C=C1C[C@@H](c2nc3cc(Cl)c(C(F)(F)F)cc3[nH]2)N(C(=O)c2c(F)cccc2-n2nccn2)C1 [Ex. 6.175]
0.067 µM | 0.073 µM | C=C1C[C@@H](c2nc3cc(Cl)c(C(F)(F)F)cc3[nH]2)N(C(=O)c2cc(C(F)(F)F)ccc2-n2nccn2)C1 [Ex. 6.184]
0.058 µM | 0.018 µM | C=C1C[C@@H](c2nc3cc(Cl)c(C(F)(F)F)cc3[nH]2)N(C(=O)c2cc(F)ccc2-n2nccn2)C1 [Ex. 6.176]
0.047 µM | 0.025 µM | C=C1C[C@@H](c2nc3cc(Cl)c(C(F)(F)F)cc3[nH]2)N(C(=O)c2nc(C)ccc2-n2cccn2)C1 [Ex. 6.189]
0.044 µM | 0.01 µM | C=C1C[C@@H](c2nc3cc(Cl)c(C(F)(F)F)cc3[nH]2)N(C(=O)c2ccccc2-n2nccn2)C1 [Ex. 6.178]
0.027 µM | 0.006 µM | C=C1C[C@@H](c2nc3cc(Cl)c(C(F)(F)F)cc3[nH]2)N(C(=O)c2cc(OC)c(OC)cc2-n2nccn2)C1 [Ex. 6.186]
0.024 µM | 0.015 µM | C=C1C[C@@H](c2nc3cc(Cl)c(C(F)(F)F)cc3[nH]2)N(C(=O)c2cc(C)ccc2-n2cccn2)C1 [Ex. 6.187]
0.016 µM | 0.162 µM | COc1ccc(-n2nccn2)c(C(=O)N2C[C@H](OC)C[C@H]2c2nc3ccc(Cl)c(C)c3n2C)c1 [Ex. 7.1]
0.013 µM | 0.006 µM | C=C1C[C@@H](c2nc3cc(Cl)c(C(F)(F)F)cc3[nH]2)N(C(=O)c2cc(Cl)ccc2-n2nccn2)C1 [Ex. 6.177]
0.012 µM | 0.006 µM | C=C1C[C@@H](c2nc3cc(Cl)c(C(F)(F)F)cc3[nH]2)N(C(=O)c2ccc(C)cc2-n2nccn2)C1 [Ex. 6.182]
0.009 µM | 0.003 µM | C=C1C[C@@H](c2nc3cc(C(C)(C)C)ccc3[nH]2)N(C(=O)c2cc(C)c(C)cc2-n2nccn2)C1 [Ex. 6.165]
0.006 µM | 0.007 µM | C=C1C[C@@H](c2nc3cc(Cl)c(C(F)(F)F)cc3[nH]2)N(C(=O)c2c(-n3nccn3)ccc(OC)c2F)C1 [Ex. 6.179]
0.005 µM | 0.004 µM | C=C1C[C@@H](c2nc3cc(Cl)c(C(F)(F)F)cc3[nH]2)N(C(=O)c2c(-n3nccn3)ccc(C)c2F)C1 [Ex. 6.180]
0.002 µM | 0.002 µM | C=C1C[C@@H](c2nc3cc(Cl)c(C(F)(F)F)cc3[nH]2)N(C(=O)c2cc(C)c(C)cc2-n2nccn2)C1 [Ex. 6.181]
0.001 µM | 0.003 µM | Cc1ccc(-n2nccn2)c(C(=O)N2CCC[C@@]2(C)c2nc3c(C)c(Cl)ccc3n2C)c1 [Ex. 7.3]
